Laboratory results published in article PMC6017536, “Synthesis and Smo Activity of Some Novel Benzamide Derivatives” (Molecules : A Journal of Synthetic Chemistry and Natural …, 2017).

system: Hh signaling pathway (Gli-luc reporter, NIH3T3 cells); assay: NIH3T3-Gli-luciferase reporter assay (Gli-Luc dual luciferase); format: cell-based, Mouse; conditions: Mus musculus; NIH3T3 cells transfected with Gli luciferase reporter, stimulated with 10 nM SAG, 24 h; average of triplicate separate determinations
Protocol: In the Hh signaling pathway activity test, we used the Gli-Luc double luciferase detection system, which is widely used to test the inhibitory activity of the Hh signaling pathway. […]
3.3.1. NIH3T3-Gli-Luciferase Reporter Assay
NIH3T3 cells (Chinese Academy of Sciences cell bank, Mouse embryonic fibroblast cell line) were grown in Dulbecco’s Modified Eagle Media (DMEM) media supplemented with 10% fetal bovine serum (FBS) at 37 °C with a humidified 5% CO2 atmosphere.
NIH3T3 cells were plated one day before transfection. To prepare NIH3T3 cells, enough cells were collected to complete the transfection experiment, and centrifuged for 5 min at 300× g. The cell pellet was resuspended to an appropriate concentration in DMEM media with 0.5% FBS, then 5000 cells were plated in 100 μL per well of a 96-well plate.
The NIH3T3 cells were transfected with the Glioma-associated oncogene (GLI)-reporter, negative control, and positive control constructs (QIAGEN, Cat# CCS-6030L) by using Fugene HD transfection reagents (Promega, Cat. No. E2311, Madison, WI). The FuGENER HD Transfection Reagent/DNA mixture was incubated for 15 min at room temperature. A total of 10 μL of the FuGENER HD Transfection Reagent/DNA mixture was added per well to the 96-well plate containing 100 μL cells in growth medium. The mixture was mixed gently using a plate shaker. Cells were returned to the incubator for 24–48 h. Transfection efficiency was estimated by observing green fluorescent protein (GFP) expression in the positive control wells by fluorescence microscopy.
[…] Cells were incubated with SAG and compounds for 24 h. To study the effect of test compounds, cells were harvested 24 h after treatment to perform the dual-luciferase assay.
Dual-Luciferase assays were conducted using the Dual-Luciferase® Assay System (Promega, Cat# E1910) according to Promega’s protocol. Each system included: 5X Passive Lysis Buffer (PLB), Luciferase Assay Buffer II, Luciferase Assay Substrate, and 50X Stop & Glo® Substrate and Stop & Glo® Buffer.
After 24 h treatment, the assay medium was removed and cells were washed with PBS buffer, and then 20 μL of 1XPLB was added to each well. The culture plates were incubated on a plate shaker with gentle shaking at room temperature for 15 min. A total of 100 μL LARII was added to each well, and the firefly luciferase luminescence signal was measured using an EnVision® 2104 Multilabel Reader (PerkinElmer, Waltham, MA, USA), with a measure time of 10s. A total of 100 μL Stop & Glo® Reagent was added to each well, and Renilla luciferase luminescence signal was measured using an EnVision® 2104 Multilabel Reader (PerkinElmer); the measure time was 10 s.
Relative Luciferase Units (RLU) Calculation
Firefly: Renilla activity ratios were generated from experimental and control transfections. Ratios from transcription factor-responsive reporter transfections were divided by ratios from negative control transfections to obtain relative luciferase units. […]
The histogram of % inhibition of compounds was generated by using GraphPad Prism 5.0 software (GraphPad Software Inc., La Jolla, CA, USA).

Molecule | IC50 [µM]
CN1CCN(C(=O)C2CCN(c3cccc(NC(=O)c4ccc([N+](=O)[O-])cc4)c3)CC2)CC1 [Compound 5g, N-(3-(4-(4-methylpiperazine-1-carbonyl)piperidin-1-yl)phenyl)-4-nitrobenzamide] | 60.56 ± 0.04
COc1cc(OC)cc(C(=O)Nc2cccc(N3CCC(C(=O)N4CCN(C)CC4)CC3)c2)c1 [Compound 5l, 3,5-Dimethoxy-N-(3-(4-(4-methylpiperazine-1-carbonyl)piperidin-1-yl)phenyl)benzamide] | 1.83 ± 0.03
CN1CCN(C(=O)C2CCN(c3cccc(NC(=O)c4cccc(-c5ccccn5)c4)c3)CC2)CC1 [Compound 5q, N-(3-(4-(4-methylpiperazine-1-carbonyl)piperidin-1-yl)phenyl)-3-(pyridin-2-yl)benzamide] | 1.26 ± 0.03
CN1CCN(C(=O)C2CCN(c3cccc(NC(=O)c4ccc(S(C)(=O)=O)cc4)c3)CC2)CC1 [Compound 5p, N-(3-(4-(4-methylpiperazine-1-carbonyl)piperidin-1-yl)phenyl)-4-(methylsulfonyl)benzamide] | 3.43 ± 0.08
CN1CCN(C(=O)C2CCN(c3cccc(NC(=O)c4cccc(F)c4)c3)CC2)CC1 [Compound 5e, 3-Fluoro-N-(3-(4-(4-methylpiperazine-1-carbonyl)piperidin-1-yl)phenyl)benzamide] | 17.59 ± 0.15
Cc1ccccc1C(=O)Nc1cccc(N2CCC(C(=O)N3CCN(C)CC3)CC2)c1 [Compound 5k, 2-Methyl-N-(3-(4-(4-methylpiperazine-1-carbonyl)piperidin-1-yl)phenyl)benzamide] | 16.61 ± 0.12
CN1CCN(C(=O)C2CCN(c3cccc(NC(=O)c4cccc(Cl)c4)c3)CC2)CC1 [Compound 5c, 3-Chloro-N-(3-(4-(4-methylpiperazine-1-carbonyl)piperidin-1-yl)phenyl)benzamide] | 14.63 ± 0.01
CN1CCN(C(=O)C2CCN(c3cccc(NC(=O)c4ccc(Br)cc4)c3)CC2)CC1 [Compound 5h, 4-Bromo-N-(3-(4-(4-methylpiperazine-1-carbonyl)piperidin-1-yl)phenyl)benzamide] | 7.85 ± 0.01
CN1CCN(C(=O)C2CCN(c3cccc(NC(=O)c4ccc(F)cc4)c3)CC2)CC1 [Compound 5d, 4-Fluoro-N-(3-(4-(4-methylpiperazine-1-carbonyl)piperidin-1-yl)phenyl)benzamide] | 15.51 ± 0.03
CCCCS(=O)(=O)N1CCN(C(=O)Cc2ccc(Cl)c(NC(=O)c3ccc(Cl)cc3)c2)CC1 [Compound 8c, N-(5-(2-(4-(butylsulfonyl)piperazin-1-yl)-2-oxoethyl)-2-chlorophenyl)-4-chlorobenzamide] | 8.62 ± 0.09
CS(=O)(=O)c1ccc(C(=O)Nc2ccc(Cl)c(-c3ccccn3)c2)c(Cl)c1 [Vismodegib, reference compound] | 0.025
CN1CCN(C(=O)C2CCN(c3cccc(NC(=O)c4ccccc4)c3)CC2)CC1 [Compound 5a, N-(3-(4-(4-Methylpiperazine-1-carbonyl)piperidin-1-yl)phenyl)benzamide] | 28.52 ± 0.02
COc1cc(C(=O)NC(=S)Nc2cccc(NC(=O)c3ccccc3)c2)cc(OC)c1OC [MRT10, reference compound] | 2.15
CN1CCN(C(=O)C2CCN(c3cccc(NC(=O)c4ccccc4Br)c3)CC2)CC1 [Compound 5m, 2-Bromo-N-(3-(4-(4-methylpiperazine-1-carbonyl)piperidin-1-yl)phenyl)benzamide] | 10.49 ± 0.05
CS(=O)(=O)N1CCN(C(=O)Cc2ccc(Cl)c(NC(=O)c3ccc(Cl)cc3)c2)CC1 [Compound 8a, 4-Chloro-N-(2-chloro-5-(2-(4-(methylsulfonyl)piperazin-1-yl)-2-oxoethyl)phenyl)benzamide] | 6.88 ± 0.13
O=C(Nc1cc(CC(=O)N2CCN(S(=O)(=O)c3ccc(F)cc3)CC2)ccc1Cl)c1ccc(Cl)cc1 [Compound 8b, 4-Chloro-N-(2-chloro-5-(2-(4-((4-fluorophenyl)sulfonyl)piperazin-1-yl)-2-oxoethyl)phenyl)benzamide] | 12.7 ± 0.16
CN1CCN(C(=O)C2CCN(c3cccc(NC(=O)c4ccc(Cl)cc4)c3)CC2)CC1 [Compound 5b, 4-Chloro-N-(3-(4-(4-methylpiperazine-1-carbonyl)piperidin-1-yl)phenyl)benzamide] | 12.47 ± 0.11
CN1CCN(C(=O)C2CCN(c3cccc(NC(=O)c4cccnc4)c3)CC2)CC1 [Compound 5n, N-(3-(4-(4-methylpiperazine-1-carbonyl)piperidin-1-yl)phenyl)nicotinamide] | 5.32 ± 0.13
CN1CCN(C(=O)C2CCN(c3cccc(NC(=O)c4ccc(S(C)(=O)=O)cc4Cl)c3)CC2)CC1 [Compound 5o, 2-Chloro-N-(3-(4-(4-methylpiperazine-1-carbonyl)piperidin-1-yl)phenyl)-4-(methylsulfonyl)benzamide] | 4.28 ± 0.01
CN1CCN(C(=O)C2CCN(c3cccc(NC(=O)c4cccc([N+](=O)[O-])c4)c3)CC2)CC1 [Compound 5f, N-(3-(4-(4-methylpiperazine-1-carbonyl)piperidin-1-yl)phenyl)-3-nitrobenzamide] | 53.34 ± 0.07

same assay, conditions: NIH3T3 cells transfected with Gli luciferase reporter, stimulated with 10 nM SAG, 24 h; average of triplicate separate determinations

Molecule | IC50 [µM]
3-Methoxy-N-(3-(4-(4-methylpiperazine-1-carbonyl)piperidin-1-yl)phenyl)benzamide [Compound 5j] | 4.74 ± 0.02
3-Methyl-N-(3-(4-(4-methylpiperazine-1-carbonyl)piperidin-1-yl)phenyl)benzamide [Compound 5i] | 16.32 ± 0.05

biological target: T1, human Smo (Homo sapiens, UniProt Q99835); assay: hSmo BODIPY-cyclopamine competitive binding assay; conditions: inhibition of BODIPY-cyclopamine fluorescence, competitive displacement, HEK 293 cells over-expressing human Smo; single IC50 determination; read-out: Smo-BCB IC50
T1 construct: HA; expressed in transfected cells; host or cells: HEK293
T1 sequence (Q99835 28-787): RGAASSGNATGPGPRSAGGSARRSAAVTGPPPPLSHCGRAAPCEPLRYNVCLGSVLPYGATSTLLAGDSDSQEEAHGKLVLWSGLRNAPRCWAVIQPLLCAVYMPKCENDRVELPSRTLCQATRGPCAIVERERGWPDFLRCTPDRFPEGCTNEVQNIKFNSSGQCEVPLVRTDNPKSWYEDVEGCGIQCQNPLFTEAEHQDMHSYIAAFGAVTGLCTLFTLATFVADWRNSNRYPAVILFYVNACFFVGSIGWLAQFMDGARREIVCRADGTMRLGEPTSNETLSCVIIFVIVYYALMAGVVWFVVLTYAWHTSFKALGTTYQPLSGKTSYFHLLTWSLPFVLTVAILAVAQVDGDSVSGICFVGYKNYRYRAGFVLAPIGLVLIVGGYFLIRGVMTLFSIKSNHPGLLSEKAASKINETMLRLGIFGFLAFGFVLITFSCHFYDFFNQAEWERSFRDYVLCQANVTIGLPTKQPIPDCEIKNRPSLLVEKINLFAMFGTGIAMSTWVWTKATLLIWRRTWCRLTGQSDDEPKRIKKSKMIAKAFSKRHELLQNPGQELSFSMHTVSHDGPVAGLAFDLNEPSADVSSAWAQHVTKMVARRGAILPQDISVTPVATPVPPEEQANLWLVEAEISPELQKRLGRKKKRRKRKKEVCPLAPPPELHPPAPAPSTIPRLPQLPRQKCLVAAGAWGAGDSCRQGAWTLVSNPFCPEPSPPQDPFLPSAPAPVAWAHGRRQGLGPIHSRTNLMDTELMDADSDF
Protocol: To determine whether the Hh inhibitory activities of the target compounds were derived from their inhibition to the Smo receptor, a binding assay was used.
3.3.2. Hsmo-BC Binding Assay
BODIPY-cyclopamine binding assay is a fluorescence-based assay used to analyze the binding of Smo agonists/antagonists. HEK293 cells were transfected with pCMV-HA/hSmo using Lipofectamine reagent (Lipofectamine™ 2000, Invitrogen, Carlsbad, CA, USA). Briefly, 50 μL of Lipofectamine 2000 and 22.5 μg of pCMV-HA/hSmo were each incubated in 1.5 mL of Opti-MEMI media (Invitrogen) at room temperature for 30 min and then was added to 1 × 10^6 HeK293 cells in 25 mL of culture medium in a 75 cm^2 cell culture flask. After overnight incubation under 5% CO2 at 37 °C, cells were detached using Versene (Invitrogen) and resuspended in culture medium. The suspended cells were added to a 96-well plate at 10,000 cells/well. After removing the media from each well, the cells were fixed with 4% paraformaldehyde (PFA) for 20 min at room temperature. Then the PFA buffer was removed, and the cells were incubated with 4′,6-diamidino-2-phenylindole (DAPI) ([…]) for 10 min, followed by washing with PBS four times. […] After incubation, the cells were washed five times with PBST (PBS buffer supplied with 0.05% Tween-20). The fluorescence images were automatically captured and analyzed by a high content fluorescence imaging system (Arrayscan VTI, Thermo, Waltham, MA, USA). Data was expressed as a percentage of fluorescence intensity observed with BODIPY-cyclopamine alone. […] IC50 values were calculated with GraphPad Prism software using the sigmoidal dose-response function.

IC50 [µM] | Molecule
2.41 ± 0.01 | COc1cc(OC)cc(C(=O)Nc2cccc(N3CCC(C(=O)N4CCN(C)CC4)CC3)c2)c1 [Compound 5l, 3,5-Dimethoxy-N-(3-(4-(4-methylpiperazine-1-carbonyl)piperidin-1-yl)phenyl)benzamide]
1.61 ± 0.02 | CN1CCN(C(=O)C2CCN(c3cccc(NC(=O)c4cccc(-c5ccccn5)c4)c3)CC2)CC1 [Compound 5q, N-(3-(4-(4-methylpiperazine-1-carbonyl)piperidin-1-yl)phenyl)-3-(pyridin-2-yl)benzamide]
6.35 ± 0.07 | CN1CCN(C(=O)C2CCN(c3cccc(NC(=O)c4cccnc4)c3)CC2)CC1 [Compound 5n, N-(3-(4-(4-methylpiperazine-1-carbonyl)piperidin-1-yl)phenyl)nicotinamide]
6.23 ± 0.12 | CN1CCN(C(=O)C2CCN(c3cccc(NC(=O)c4ccc(S(C)(=O)=O)cc4Cl)c3)CC2)CC1 [Compound 5o, 2-Chloro-N-(3-(4-(4-methylpiperazine-1-carbonyl)piperidin-1-yl)phenyl)-4-(methylsulfonyl)benzamide]
